Measured values published in a melting point compilation (Tetko et al.; mined from patent text by program, amines drawn as free bases though some values may be those of a salt).

| SMILES | melting point [°C] |
| --- | --- |
| Cc1cccc(C)c1N1CCCNC1=S | 249 to 251 |
| CC(=O)N1CCN(c2cc3nc(C(C)(C)C)sc3cc2N)CC1 | 182 to 185 |
| Cc1nnc(-c2ccc3occ(-c4cccc(F)c4F)c3c2)o1 | 112 to 113 |
| O=C(Nc1cccc(Br)c1)c1ccccc1SSc1ccccc1C(=O)Nc1cccc(Br)c1 | 194 to 196 |
| COc1ccc(N2CCN(c3ccc(-n4c(C)nnc4S)cc3)CC2)cc1 | 260 |
| CC(C)(C)OC(=O)NC(C)(C)c1ccc(Br)nc1 | 100 to 103 |
| CCOC(=O)c1cnn(C)c1C(=O)Nc1ccn2nc(-c3cccnc3F)nc2c1 | 249 to 251 |
| Cc1c(-c2cc(F)cc(C(F)(F)F)c2)ccc2nc(N)nc(N)c12 | 225 to 226 |
| CC(C)(C)c1cc(-n2nc3ccc(Cl)cc3n2)c(O)c(C(C)(C)c2ccc(Cl)cc2)c1 | 130 to 131 |
| O=c1c2ccccc2oc2c(C3CCCCC3)cccc12 | 122 to 124 |
| CCOC(=O)CN(C(=O)C(=O)N(CC(=O)OCC)S(=O)(=O)C(F)(F)F)S(=O)(=O)C(F)(F)F | 88 to 90 |
| CC(=O)N1CCN(c2c(F)cc3c(=O)c(C(=O)O)cn(C4CC4)c3c2C)CC1C (stereo unspecified) | 219 to 221 |
| C[Si](C)(C)C#Cc1ccc2c(c1)C(=O)N(c1ccc3c(c1)C=C3)C2=O | 192 to 193 |
| CC1(C)C(=O)Oc2ccc(C#N)cc21 | 138 to 140 |
| CN(C)C(=O)Nc1ccc2c(c1)C(c1ccccc1F)=NCC(=O)N2C | 97 |
| CC(=O)OC(c1ccc(Cl)c(Cl)c1)C(Cl)(Cl)Cl (stereo unspecified) | 85 to 86 |
| CC(=O)OC1CSC(Oc2cccc(-c3ncccc3Cl)c2)C(OC(C)=O)C1OC(C)=O (stereo unspecified) | 148 |
| C=C(C)C(=O)NCCNC(=O)CCl | 126 to 128 |
| Oc1c(CN2CCCC2)cc(Nc2ccccn2)cc1CN1CCCC1 | 158 to 159 |
| CC(C)(C)OC(=O)N1CCN(C(=O)CCl)CC1 | 68 to 70 |
| CCCCCc1ccc(CCc2ccc(-c3ccc([C@H]4CC[C@H](CCCCC)CC4)cc3F)cc2)cc1 | 69 |
| Cc1nc(Cl)c2ncn(-c3ccc(C(C)C)cc3Br)c2n1 | 49 to 52 |
| COC[C@H](Cc1ccccc1)Nc1nc(C)nc2c1nnn2-c1ccc(C(C)C)cc1Br | 67 to 69 |

| SMILES | melting point [°C] |
| --- | --- |
| CCCCNc1ccc(-c2nc(C(=O)Nc3nccs3)c(-c3cccc(OC)c3)[nH]2)cc1 | 228 to 231 |
| S=C1N=c2ccc(OCCN3CCC(Cc4ccccc4)CC3)cc2=N1 | 273 to 275 |
| N#Cc1cc(C2CCCO2)nn1-c1ccc(NC(=O)c2ccncc2F)cc1 (stereo unspecified) | 160 to 162 |
| Cc1cc(Oc2ccccc2)nc2ccccc12 | 101 |
| CCCCCCCCCC(CC)SCCCCCCCCCCN1C(=O)CCC1=O (stereo unspecified) | 86 |
| CN1C(=S)N(c2ccc(C#N)c(C(F)(F)F)c2)C(=O)C1(CO)CO | 169 to 170 |
| CN1C(=O)CC[C@]2(C)c3ccc(-c4ccc(C(F)(F)F)cc4F)cc3CC[C@@H]12 | 72 to 79 |
| Nc1c2c(nc3cccc(Cl)c13)C(=O)CCC2 | 205 |
| CN1Cc2c(C(=O)OC(C)(C)C)ncn2-c2ccncc2C1=O | 214 to 215 |
| C[C@H](NC(=O)C(CSC(=O)c1ccccc1)SC(=O)c1ccccc1)C(=O)N1CCC[C@H]1C(=O)O (stereo partly specified) | 185 to 186 |
| O=C(CCCCC(=O)NCC1Cc2c1ccc(OCc1ccccc1)c2OCc1ccccc1)NCCc1ccccc1 (stereo unspecified) | 152 to 155 |
| CC(C)(C)c1cc(SCCC=O)cc(C(C)(C)C)c1O | 64 to 65 |
| COc1cc2c(cc1OC)CN(c1c(C)c(C)c3c(c1C)C(c1ccccc1)C(C)(C)O3)C2 (stereo unspecified) | 154 to 157 |
| N#Cc1cccc(CSc2nnc(-c3ccc4nccn4c3)o2)c1 | 175 to 176 |
| O=C(O)c1ncn2c1Cn1ccnc1-c1sccc1-2 | 225 to 227 |
| O=C(Oc1cc(/C=C/c2ccc(O)cc2)cc(OC(=O)c2cc(O)c(O)c(O)c2)c1)c1cc(O)c(O)c(O)c1 | 210 to 212 |
| CC(=O)c1nn(-c2c(Cl)cc(C(F)(F)F)cc2Cl)c(N)c1S(C)(=O)=O | 77 to 79 |
| CN(C)c1cc(Cl)c(C=O)c(Cl)c1 | 169 to 171 |
| COc1ccc(OC)c(CC(NC(=O)CC(C2CCCCC2)C2CCCCC2)C(=O)OC(C)(C)C)c1 (stereo unspecified) | 108 to 111 |
| CO[C@@H](C)CNC(=O)c1c[nH]c2ncc(-c3nn(C)c4cc(F)ccc34)nc12 | 269 to 271 |
| CSC(SC)=C1CCC2CC=CC=C2C1=O (stereo unspecified) | 54 to 56 |
| FC(F)(F)c1cccc(OC(c2ccc(Cl)cc2)c2ncco2)c1 (stereo unspecified) | 66 to 67 |
| CC(O)(CC(=O)O)CC(=O)O | 108 |

Further lines, results first:

| melting point [°C] | SMILES |
| --- | --- |
| 222 to 223 | CCOC(=O)c1ccc(NC(=O)Cc2csc3nc(C(=O)NCc4cccc(OC)c4)[nH]c(=O)c23)cc1 |
| 204 to 205 | O=c1[nH]c2ccccc2c(=O)cc1N(CCO)CCO |
| > 300 | Cn1c(=O)n(Cc2ccc(C#N)cc2)c(=O)c2nc(-c3ccc(/C=C/C(=O)O)cc3)[nH]c21 |
| 201 | CN(C(Cc1ccc(O)cc1)CN1CCN(c2ccccc2)CC1)S(=O)(=O)c1cccc2cnccc12 (stereo unspecified) |
| 86 to 87 | Clc1ccc(CNN2C=CN=CC2)cc1 |
| 254 to 256 | O=C(NNC(=O)c1ccc([N+](=O)[O-])cc1)c1ccccc1 |
| 208 to 212 | COc1ccc(OC)c2c(C=O)c3ccccc3c(C=O)c12 |
| 120 to 123 | N#Cc1cccc(C(CC(=O)c2ccc(F)cc2)CC(=O)c2ccc(F)cc2)c1 |
| 136 to 139 | CC(=O)OCc1ccc(C#Cc2ccc3c(c2)C(C)(C)CCC3(C)C)cc1 |
| 128 to 129 | COC(=O)Cc1ccc2nc(Nc3ccccc3C)oc2c1 |
| 236 to 237 | OCc1ccnc(Nc2ncc(-c3ccccc3)s2)c1 |
| 190 to 192 | O=C(O)c1cc(NC(=O)C(CS)Cc2ccccc2)ccc1Cl (stereo unspecified) |
| 129 to 130 | O=C(NCCCSc1ccncc1)c1cc(Br)c(Br)s1 |
| 262 to 265 | CCOC(=O)[C@H](Cc1ccc(-c2c(C)n(C)c(=O)n(C)c2=O)cc1)NC(=O)c1c(Cl)cccc1Cl |
| 140 to 142 | CC(C)Cn1c(=O)n(C)c(=O)c2c(I)n(Cc3cccc4ccccc34)cc21 |
| 110 to 111 | O=C(O)CCCCC(=O)NCCc1ccccc1 |
| 98 to 101 | COc1cc(OCC(=O)N[C@@H]2CCN(Cc3ccccc3)C2)ccc1C=O |
| 223 to 225 | CS(=O)(=O)Nc1ccc(CC#N)c2cn[nH]c12 |
| 73 to 75 | O=[N+]([O-])CS(=O)(=O)c1ccc(CO)cc1 |
| 73 to 77 | CCOC(=O)c1c(C2CC2)nn(CC)c1Cc1ccc(-c2ccccc2-c2nnn[nH]2)cc1 |
| 85 to 90 | O=C(O)CC(Sc1ccccc1)c1ccccc1 (stereo unspecified) |
| 166 | O=S(=O)(c1ccc2ccccc2c1)N1CCCC1c1ccc(F)cc1 (racemic) |
| 192 | O=C(O)CCCc1cc2cc(Cl)ccc2n1S(=O)(=O)c1ccccn1 |
| 135 to 137 | CCCOc1ccc(S(=O)(=O)N2CCN(CC)CC2)cc1-c1nc2cc3ncn(Cc4ccccc4)c3cc2c(=O)[nH]1 |
| 150 to 152 | COC(=O)NNC(=S)Cc1ccc(F)cc1 |
| 254 to 258 | CC(=O)Nc1ccc(C2=NNC(=O)C2)cc1 |
| 157 to 159 | CCOC(=O)c1cccc(/C=C/C(=O)c2cc(O)ccc2[N+](=O)[O-])c1 |
| 158 to 159 | O=C(O)c1ccccc1COc1cccc(Br)c1 |

| melting point [°C] | SMILES |
| --- | --- |
| 198 to 200 | O=C(O)COc1cccc2c1CCc1sc(SCc3ccc(-c4ccccc4)cc3)nc1-2 |
| 112 to 114 | COCCOc1c(S(C)(=O)=O)ccc(C(=O)c2cnn(C)c2O)c1C |
| 145 to 147 | O=c1oc(C=Cc2ccccc2)nc2ccccc12 |
| 159 | O=S(=O)(c1ccc(Cl)cc1)N1CCCC1c1ccc(Cl)cc1 (racemic) |
| 177 | Nc1ccc(N2C(=O)c3cccc([N+](=O)[O-])c3C2=O)cc1 |
| 217 to 219 | Cn1cc(Br)cc(Nc2ccncn2)c1=O |
| 111 to 117 | O=c1[nH]c(-c2ccc(CCCCCl)cc2)cs1 |
| 205 to 207 | Cc1c(O)c(=O)ccn1Cc1ccccc1 |
| 180 to 182 | COc1ccc(N(S(=O)(=O)c2ccc(C)cc2)S(=O)(=O)c2ccc(C)cc2)c([N+](=O)[O-])c1 |
| 147 to 148 | CCc1c(C)c(NC(=O)NCCO)c(C)c2c1OCC2c1ccc(C(C)C)cc1 (stereo unspecified) |
| 88 to 89 | CCOC(=O)CN=c1sc2ccccc2s1 |
| 101 to 103 | O=c1ccc(C(F)(F)F)cn1Cc1ccccc1NCCN1CCOCC1 |
| 171 to 172 | CCOCCNCCOc1ccc(NC(=O)c2ccccc2NS(C)(=O)=O)cc1 |
| 223 to 225 | O=C1c2ccccc2C(=O)N1OS(=O)(=O)c1ccc2ccccc2c1 |
| 155 to 156 | CC(=O)Nc1cc(Br)c(O)c(Br)c1 |
| 76 | CCOC(=O)N1CCN(CCS(=O)c2ccccc2)CC1 (stereo unspecified) |
| 170 | CC(=O)Nc1ccc2c(c1)[C@@H](O)[C@H](Br)C(C)(C)O2 (relative stereo) |
| 208 to 210 | O=C(O)Cc1ccc2cc(O)ccc2c1 |
| 82 to 83 | CC(C)C1C(=O)N(CSc2ccccc2)S(=O)(=O)N1C (stereo unspecified) |
| 189 to 190 | CC(CNC(=O)c1cccc(Oc2ccccc2)c1)N(O)C(N)=O (stereo unspecified) |
| 237 | COC1=C(C(=O)c2ccc(C)cc2)C(c2ccc(C(C)C)cc2)N(c2ncc(S(=O)(=O)c3ccc([N+](=O)[O-])cc3)s2)C1=O (stereo unspecified) |
| 75 to 80 | COC(=O)C(CNC(C)=O)C1CCC(c2ccccc2)CC1 (stereo unspecified) |
| 125 to 128 | Nc1ccc(OCc2nc3cc(F)ccc3s2)cc1 |
| 55 to 56 | CCCCCCCCCCCCCCCCCCN(C)C(=O)c1ccc(Cl)c([N+](=O)[O-])c1 |
| 88 to 89 | COc1cccc(CC(=O)O)c1OCCc1ccccc1 |
| 83 to 84 | CCOc1nn(-c2ccc(C(F)(F)F)cn2)cc1CCCOc1ccccc1CC(=O)O |
| 200 to 202 | CS(=O)(=O)c1ccc(Cn2c3c(c4cc(F)cc(F)c42)CCCC(CC(=O)O)C3)cc1 (stereo unspecified) |
